Results from patent US20160324149A1, “ADJUVANTS FOR PLANT GROWTH REGULATORS” (VERDESIAN LIFE SCINCES, LLC, priority 2014, published 2016).

System: soybean seedlings
Experiment: Soybean seedling spray test, dry weight one week later
Assay type: in vivo
Settings: for Mean Plant Dry Wt. / Total Dry Wt.: sprayed at 20 gallons per acre, harvested one week later
Description: In this test, soybean seedlings at true leaf emergence were sprayed with a series of aqueous test solutions at a rate of 20 gallons per acre. In those solutions including AVAIL®, use was made of AVAIL® for liquid phosphate fertilizers. The beans were then harvested one week later and were counted, dried, and weighed, and average weight per plant was determined.

Q: With `C=C1C[C@]23C[C@@]1(O)CC[C@H]2[C@@]12C=C[C@H](O)[C@@](C)(C(=O)O1)[C@H]2[C@@H]3C(=O)O` [gibberellic acid] as the compound, how does the “Mean plant dry weight as gibberellic acid concentration increased” value (50-500 ppm) read?
A: The value was “the mean plant dry weight also increased”.

Q: And the “Mean Plant Dry Wt.” value (50 ppm gibberellic acid)?
A: Its value is 1.594 g.

Q: And the “Total Dry Wt.” value (50 ppm gibberellic acid)?
A: Its value is 17.53 g.

Q: What about the “Mean Plant Dry Wt.” value (100 ppm gibberellic acid) of the same compound?
A: The value was 1.808 g.

Q: And the “Total Dry Wt.” value (100 ppm gibberellic acid)?
A: The value was 18.08 g.

Q: And the “Mean Plant Dry Wt.” value (250 ppm gibberellic acid)?
A: The value was 1.718 g.

Q: What about the “Total Dry Wt.” value (250 ppm gibberellic acid) of the same compound?
A: The value was 20.61 g.

Q: What about the “Mean Plant Dry Wt.” value (500 ppm gibberellic acid) of the same compound?
A: The value was 2.280 g.

Q: And the “Total Dry Wt.” value (500 ppm gibberellic acid)?
A: The value was 22.80 g.
